# Measurements taken from patent US12397059B2, “Compounds and methods for the treatment and prevention of fibrotic disease states and cancer” (Purdue Research Foundation, priority 2019, dated 2025).
# Test system: BM-induced experimental pulmonary fibrosis in mice
# Description: Studies were also performed to determine if macrophages in pulmonary fibrotic lungs might be specifically targeted with folate-linked drugs in vivo. […] (The BM model is widely regarded to be helpful in terms of enabling mechanistic investigations relevant to fibrogenesis in an in vivo context.)
# More specifically, eight-week-old C57BL6 male mice from Charles River (average weight 22 g to 25 g) were housed under pathogen-free conditions at room temperature (22° C.) under a 12 hours light-dark cycle. Mice were placed on a folate deficient chow (Envigo Teklad Global Rat Food Pellets) for 1 week prior to the BM or PBS instillation. Fresh water and folate-deficient diet were freely available. All animal procedures were approved by the Purdue Animal Care and Use Committee in accordance with National Institute of Health guidelines.
# Thereafter, the mice were anesthetized with ketamine/xylazine and the necks of the mice were shaved using hair remover lotion and then sterilized with 70% alcohol. A small incision was made on the neck to visualize the trachea. Mice were positioned at a 75-degree angle and injected intratracheally with 100 μL sterile PBS or BM (Cayman Chemicals, Ann Arbor, MI; #13877) dissolved in PBS (0.75 mg/kg) using a 1 cc syringe with 26 G needle. Body weights were monitored every other day throughout the experiment.
# Lobes of the right lung collected above were weighed, placed in a pressure-tight vial (Supelco Inc., Bellefonte, PA; #27003), and hydrolyzed with 6N HCl (10 ml/g, v/w) in a sand bath at 120° C. for 3.5 hours. The hydrolyzed solution was cooled at 4° C. for 15 min and transferred to a 1.5 ml Eppendorf tube prior to centrifugation at 12,000 rcf for 15 min at 4° C. Supernatant was carefully collected, aliquoted and used for hydroxyproline (HYP) analysis.
# For the subsequent HYP analysis, 10 μl of sample was transferred into a 96-well plate and neutralized with 10 μl of 5.3 M sodium hydroxide solution. Isopropanol (40 μl) was then added to each well followed by 20 μl of oxidation buffer and the mixture was incubated on a shaker at room temperature for 5 min. Analytical reagent (260 μl) was added, and the plate was incubated on a shaker at room temperature for 30 seconds and incubated immediately at 60° C. for 25 min. The absorbance was measured at 560 nm (A560) within 15 min. All reagents were prepared according to a previously reported protocol.
# For histological analysis of the lung sections, fixed lungs (see above) were embedded in paraffin, sectioned and stained with hematoxylin-eosin (H&E), Masson's trichrome or F3 (anti-mouse FRβ antibody). Tissue sections were examined in a blinded manner by a licensed pathologist. More than 90×10^6 cells were quantified per section using Aperio-Image Scope (Leica Biosystems, Wetzlar, DE).
# For this, BM-treated mice were intravenously injected every other day beginning on day 10 with either vehicle (3% DMSO in PBS) or Compound 1B (see FIG. 8A). […] In BM-induced experimental pulmonary fibrosis in mice, inflammation is known to persist for about 9-10 days after BM installation. Because, inflammation to fibrosis switch happens in this model approximately day 9 to day 14, and profibrotic markers start appearing at about day 10, dosing began on day 10 (FIG. 8A).
# Two doses were given every other day till day 21. The individual doses on a day are separated by 6 hours to prevent any “tolerance” to TLR agonists. Mice were then sacrificed on day 21 and subjected immediately to bronchoalveolar lavage followed by resection of the lungs for immunohistochemistry and quantitation of collagen and hydroxyproline.
smiles,measurement,setting,value
CCCCc1nc2c(N)nc3ccccc3c2n1CC(C)(C)OC(=O)OCCSSCC(NC(=O)CCC(NC(=O)c1ccc(NCc2cnc3nc(N)[nH]c(=O)c3n2)cc1)C(=O)O)C(=O)O (centres unmarked) [Compound 1B],lung histology with increasing dose,"1, 3, 10 nmol",lung histology improved
same,order of efficacy on lung hydroxyproline content,day 21,10 nmol/mouse>3 nmol/mouse>1 nmol/mouse>0 nmol/mouse
same,"anti-fibrotic response, lung sections stained DAPI, anti-F4/80, anti-CD206",differences between treated groups,robust anti-fibrotic response
same,"collagen stain, Masson's trichrome",tail vein injection,strongly suppressed
same,"lung histology, H&E staining",treated beginning on day 10,lung architecture that resembles that of healthy mice
